{"source": "patent US12208088B2", "about": "(Genentech, Inc., priority 2018, dated 2025)", "data": [{"target": "HPK1 (Homo sapiens (Human), UniProt Q92918)", "sequence (Q92918 1-346 limits assumed)": "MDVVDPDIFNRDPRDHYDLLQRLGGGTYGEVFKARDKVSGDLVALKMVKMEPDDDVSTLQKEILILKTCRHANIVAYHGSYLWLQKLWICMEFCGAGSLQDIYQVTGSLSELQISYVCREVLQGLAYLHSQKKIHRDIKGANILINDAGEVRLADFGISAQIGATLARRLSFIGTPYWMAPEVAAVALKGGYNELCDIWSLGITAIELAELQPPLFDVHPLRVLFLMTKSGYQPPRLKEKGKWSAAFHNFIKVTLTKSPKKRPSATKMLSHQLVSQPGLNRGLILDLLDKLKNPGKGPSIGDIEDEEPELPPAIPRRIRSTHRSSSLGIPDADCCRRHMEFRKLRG", "assay": "HPK1 Lantha binding assay (\"Lanth\")", "conditions": "binding assays; Morrison Ki fit", "procedure": "Example B2: HPK1 Lantha Binding Assay (“Lanth”)\nProcedure: I. Compound Dilution:\nThe compounds to be tested were diluted by preparing 12.5 uL/well of 5 mM compound (100×) in columns 2 and 13 and 10 ul/well of DMSO in columns 3-12, 14-23, and wells A1-H1 and I24-P24 of the compound plate using a Bravo liquid handling platform. For the reference compound, the top concentration was 1 mM. To the plate was added 10 ul 2 mM staurosporine in wells J1-P1 and A24-H24. A 11 point 5-fold compound serial dilution was performed using the Bravo liquid handling platform. From the plate were transferred 2.5 ul of the solutions from column 2 and column 13 to the 10 ul of DMSO in columns 3 and 14 & so on. The compound plate was centrifuged at 2500 rpm for 1 min. From the compound plate was transferred 80 nl of the compounds into an assay plate using the Echo liquid handler system. One compound plate makes two assay plates. Each assay plate is sealed and stored in an N2 cabinet.\nThe following assay concentrations and times were used: 2 nM HPK1, 2 nM Eu-Anti-GST Ab, and 15 nM Tracer222, with 60 min incubation time.\nIII. HPK Lantha Binding Assay:\nFor the binding assay, 4 ul 2×HPK1 and Eu-anti-GST antibody were added to each well of the assay plate using a Multidrop reagent dispenser. The solutions were incubated in a 23 C incubator for 1 h. To each well of the assay plate was added 4 ul 2× Tracer-222 using a Multidrop reagent dispenser. The solutions were again incubated in a 23 C incubator for 1 h. The results of the assay were read using an Envision plate reader with the following parameters: TR_FRET, 340 ex/615 and 665em; 100 usec Delay; and 200 usec integration.\nCompound Ki was analyzed using Morrison ki fit model in XL-fit • a. fit=(1−((((E+x)+(Ki*(1+(S/Kd))))−(((((E+x)+(Ki*(1+(S/Kd))))^2)−((4*E)*x))^0.5))/(2*E))) • res=(y−fit) • b. Parameters: • E=enzyme concentration • S=Tracer222 concentration, Kd=Tracer222 Kd • All measurements reported using the same units (uM)\nExemplary compounds were tested in the binding assays.", "units": {"Ki": "nM"}, "values": [{"smiles": "CN(C)C(=O)c1c(N)ccc(-c2cnc3c(c2Cl)[C@]2(CC[C@H](n4cccn4)C2)CN3)c1F", "note": "(relative stereo) [Compound 126a, 6-Amino-3-((1R,3S)-4′-chloro-3-(1H-pyrazol-1-yl)-1′,2′-dihydrospiro[cyclopentane-1,3′-pyrrolo[2,3-b]pyridin]-5′-yl)-2-fluoro-N,N-dimethylbenzamide]", "Ki": 18.5}, {"smiles": "CN(C)C(=O)c1c(N)ccc(-c2cnc3c(c2Cl)[C@]2(CC[C@H](CN)C2)CN3)c1F", "note": "(relative stereo) [Compound 127a, 6-Amino-3-((1R,3S)-3-(aminomethyl)-4′-chloro-1′,2′-dihydrospiro[cyclopentane-1,3′-pyrrolo[2,3-b]pyridin]-5′-yl)-2-fluoro-N,N-dimethylbenzamide]", "Ki": 165}, {"smiles": "CN(C)C(=O)c1c(N)ccc(-c2cnc3c(c2Cl)[C@]2(CC[C@](C)(C(N)=O)C2)CN3)c1F", "note": "(relative stereo) [Compound 132a, (1R,3S)-5′-(4-Amino-3-(dimethylcarbamoyl)-2-fluorophenyl)-4′-chloro-3-methyl-1′,2′-dihydrospiro[cyclopentane-1,3′-pyrrolo[2,3-b]pyridine]-3-carboxamide]", "Ki": 2.08}, {"smiles": "CN(C)C(=O)c1c(N)ccc(-c2cnc3c(c2Cl)[C@]2(CC[C@H](n4ccc(N)n4)C2)CN3)c1F", "note": "(relative stereo) [Compound 133a, 6-Amino-3-((1R,3S)-3-(3-amino-1H-pyrazol-1-yl)-4′-chloro-1′,2′-dihydrospiro[cyclopentane-1,3′-pyrrolo[2,3-b]pyridin]-5′-yl)-2-fluoro-N,N-dimethylbenzamide]", "Ki": 34}, {"smiles": "CN(C)C(=O)c1c(N)ccc(-c2cnc3c(c2Cl)[C@]2(CC[C@H](n4nccc4N)C2)CN3)c1F", "note": "(relative stereo) [Compound 134a, 6-Amino-3-((1R,3S)-3-(5-amino-1H-pyrazol-1-yl)-4′-chloro-1′,2′-dihydrospiro[cyclopentane-1,3′-pyrrolo[2,3-b]pyridin]-5′-yl)-2-fluoro-N,N-dimethylbenzamide]", "Ki": 16.1}, {"smiles": "CN(C)C(=O)c1c(N)ccc(-c2cnc3c(c2Cl)[C@]2(CC[C@H](CC(N)=O)C2)CN3)c1F", "note": "(relative stereo) [Compound 135a, 6-Amino-3-((1R,3S)-3-(2-amino-2-oxoethyl)-4′-chloro-1′,2′-dihydrospiro[cyclopentane-1,3′-pyrrolo[2,3-b]pyridin]-5′-yl)-2-fluoro-N,N-dimethylbenzamide]", "Ki": 7.16}, {"smiles": "CC[C@H]1C[C@@]12CNc1ncc(-c3ccc(N)c(C(=O)N(C)C)c3F)c(Cl)c12", "note": "(relative stereo) [Compound 150a, 6-Amino-3-((1R,2S)-4′-chloro-2-ethyl-1′,2′-dihydrospiro[cyclopropane-1,3′-pyrrolo[2,3-b]pyridin]-5′-yl)-2-fluoro-N,N-dimethylbenzamide]", "Ki": 3.3}, {"smiles": "CC[C@@H]1C[C@@]12CNc1ncc(-c3ccc(N)c(C(=O)N(C)C)c3F)c(Cl)c12", "note": "(relative stereo) [Compound 150c, 6-Amino-3-((1R,2R)-4′-chloro-2-ethyl-1′,2′-dihydrospiro[cyclopropane-1,3′-pyrrolo[2,3-b]pyridin]-5′-yl)-2-fluoro-N,N-dimethylbenzamide]", "Ki": 2.51}, {"smiles": "CN(C)C(=O)c1c(N)ccc(-c2cnc3c(c2Cl)[C@]2(CC[C@@](C)(C#N)C2)CN3)c1F", "note": "(relative stereo) [Compound 151a, 6-Amino-3-((1R,3R)-4′-chloro-3-cyano-3-methyl-1′,2′-dihydrospiro[cyclopentane-1,3′-pyrrolo[2,3-b]pyridin]-5′-yl)-2-fluoro-N,N-dimethylbenzamide]", "Ki": 42}, {"smiles": "CC[C@]1(C#N)CC[C@@]2(CNc3ncc(-c4ccc(N)c(C(=O)N(C)C)c4F)c(Cl)c32)C1", "note": "(relative stereo) [Compound 152a, 6-Amino-3-((1R,3S)-4′-chloro-3-cyano-3-ethyl-1′,2′-dihydrospiro[cyclopentane-1,3′-pyrrolo[2,3-b]pyridin]-5′-yl)-2-fluoro-N,N-dimethylbenzamide]", "Ki": 4.35}, {"smiles": "CC[C@]1(C(N)=O)CC[C@@]2(CNc3ncc(-c4ccc(N)c(C(=O)N(C)C)c4F)c(Cl)c32)C1", "note": "(relative stereo) [Compound 153a, (1R,3S)-5′-(4-Amino-3-(dimethylcarbamoyl)-2-fluorophenyl)-4′-chloro-3-ethyl-1′,2′-dihydrospiro[cyclopentane-1,3′-pyrrolo[2,3-b]pyridine]-3-carboxamide]", "Ki": 7.16}, {"smiles": "Cc1noc([C@@]2(C)CC[C@@]3(CNc4ncc(-c5ccc(N)c(C(=O)N(C)C)c5F)c(Cl)c43)C2)n1", "note": "(relative stereo) [Compound 156a, 6-Amino-3-((1R,3S)-4′-chloro-3-methyl-3-(3-methyl-1,2,4-oxadiazol-5-yl)-1′,2′-dihydrospiro[cyclopentane-1,3′-pyrrolo[2,3-b]pyridin]-5′-yl)-2-fluoro-N,N-dimethylbenzamide]", "Ki": 2.63}, {"smiles": "Cc1nc(N)nn1[C@H]1CC[C@@]2(CNc3ncc(-c4ccc(N)c(C(=O)N(C)C)c4F)c(Cl)c32)C1", "note": "(relative stereo) [Compound 157a, 6-Amino-3-((1R,3S)-3-(3-amino-5-methyl-1H-1,2,4-triazol-1-yl)-4′-chloro-1′,2′-dihydrospiro[cyclopentane-1,3′-pyrrolo[2,3-b]pyridin]-5′-yl)-2-fluoro-N,N-dimethylbenzamide]", "Ki": 109}, {"smiles": "Cc1nc(N)n([C@H]2CC[C@@]3(CNc4ncc(-c5ccc(N)c(C(=O)N(C)C)c5F)c(Cl)c43)C2)n1", "note": "(relative stereo) [Compound 158a, 6-Amino-3-((1R,3S)-3-(5-amino-3-methyl-1H-1,2,4-triazol-1-yl)-4′-chloro-1′,2′-dihydrospiro[cyclopentane-1,3′-pyrrolo[2,3-b]pyridin]-5′-yl)-2-fluoro-N,N-dimethylbenzamide]", "Ki": 132}, {"smiles": "Cc1ccn([C@H]2CC[C@@]3(CNc4ncc(-c5ccc(N)c(C(=O)N(C)C)c5F)c(Cl)c43)C2)n1", "note": "(relative stereo) [Compound 159a, 6-Amino-3-((1R,3S)-4′-chloro-3-(3-methyl-1H-pyrazol-1-yl)-1′,2′-dihydrospiro[cyclopentane-1,3′-pyrrolo[2,3-b]pyridin]-5′-yl)-2-fluoro-N,N-dimethylbenzamide]", "Ki": 32.2}, {"smiles": "Cc1cc(C#N)n([C@H]2CC[C@@]3(CNc4ncc(-c5ccc(N)c(C(=O)N(C)C)c5F)c(Cl)c43)C2)n1", "note": "(relative stereo) [Compound 161a]", "Ki": 51}, {"smiles": "Cc1cc(C)n([C@H]2CC[C@@]3(CNc4ncc(-c5ccc(N)c(C(=O)N(C)C)c5F)c(Cl)c43)C2)n1", "note": "(relative stereo) [Compound 163a, 6-Amino-3-((1R,3S)-4′-chloro-3-(3,5-dimethyl-1H-pyrazol-1-yl)-1′,2′-dihydrospiro[cyclopentane-1,3′-pyrrolo[2,3-b]pyridin]-5′-yl)-2-fluoro-N,N-dimethylbenzamide]", "Ki": 69.3}, {"smiles": "CN(C)C(=O)c1c(N)ccc(-c2cnc3c(c2Cl)[C@]2(CC[C@H](n4cc(C(F)(F)F)cn4)C2)CN3)c1F", "note": "(relative stereo) [Compound 164a, 6-Amino-3-((1R,3S)-4′-chloro-3-(4-(trifluoromethyl)-1H-pyrazol-1-yl)-1′,2′-dihydrospiro[cyclopentane-1,3′-pyrrolo[2,3-b]pyridin]-5′-yl)-2-fluoro-N,N-dimethylbenzamide]", "Ki": 6.65}, {"smiles": "COc1c(-c2ccc(N)c(C(=O)N(C)C)c2F)cnc2c1[C@@]1(CN2)C[C@@H]1C", "note": "(relative stereo) [Compound 165a, 6-Amino-2-fluoro-3-((1R,2S)-4′-methoxy-2-methyl-1′,2′-dihydrospiro[cyclopropane-1,3′-pyrrolo[2,3-b]pyridin]-5′-yl)-N,N-dimethylbenzamide]", "Ki": 6.41}, {"smiles": "Cc1nccn1[C@H]1CC[C@@]2(CNc3ncc(-c4ccc(N)c(C(=O)N(C)C)c4F)c(Cl)c32)C1", "note": "(relative stereo) [Compound 167a, 6-Amino-3-((1R,3S)-4′-chloro-3-(2-methyl-1H-imidazol-1-yl)-1′,2′-dihydrospiro[cyclopentane-1,3′-pyrrolo[2,3-b]pyridin]-5′-yl)-2-fluoro-N,N-dimethylbenzamide]", "Ki": 163}, {"smiles": "CCc1cnn([C@H]2CC[C@@]3(CNc4ncc(-c5ccc(N)c(C(=O)N(C)C)c5F)c(Cl)c43)C2)c1", "note": "(relative stereo) [Compound 170a, 6-Amino-3-((1R,3S)-4′-chloro-3-(4-ethyl-1H-pyrazol-1-yl)-1′,2′-dihydrospiro[cyclopentane-1,3′-pyrrolo[2,3-b]pyridin]-5′-yl)-2-fluoro-N,N-dimethylbenzamide]", "Ki": 5.54}, {"smiles": "CN(C)C(=O)c1c(N)ccc(-c2cnc3c(c2Cl)[C@]2(CC[C@H](n4cc(Cl)cn4)C2)CN3)c1F", "note": "(relative stereo) [Compound 171a, 6-Amino-3-((1R,3S)-4′-chloro-3-(4-chloro-1H-pyrazol-1-yl)-1′,2′-dihydrospiro[cyclopentane-1,3′-pyrrolo[2,3-b]pyridin]-5′-yl)-2-fluoro-N,N-dimethylbenzamide]", "Ki": 6.58}]}]}
